Experimental data taken from US12508280B2, “Formulations for improving gut health” (DSM IP ASSETS B.V., priority 2018, dated 2025).

Test: Broiler feeding trial, cecal 1H-NMR metabolomic analysis
Type: in vivo, chickens
Procedure: A total of 63 samples have been provided to the Bio-NMR Group of Department of Agricultural and Food Science and Interdepartmental Centre for Industrial Agri-Food Research (CIRI) of University of Bologna, Italy, including 21 cecal samples, collected from the first time point, 21 from the second time point and 21 from the third time were available.
Preliminary analysis were performed on 63 samples subdivided as follows: control samples (A) fed with 10 mg/kg of Vit. B2, treated samples (B) fed with 50 mg/kg of Vit. B2, treated samples (C) fed with 100 mg/kg of Vit. B2. Samples were prepared for nuclear magnetic resonance (NMR) analysis by vortex mixing for 5 minutes stool with 1 mL of deionized water, followed by centrifugation for 10 minutes at 14,000 rpm and 4° C. About […] of supernatant was added to 100 μL of a D2O 1.5 M phosphate buffer solution containing 0.1% TSP (3-(trimethylsilyl)propionic acid-d4), NaN3 2 mM, set at pH 7.40. Before analysis, samples were centrifuged for 10 minutes again and then 590 uL transferred into an NMR tube.
Proton NMR (^1H-NMR) spectra were recorded at 298 K with an AVANCE III spectrometer (Bruker, Milan, Italy) operating at a frequency of 600.13 MHz. The Hydrogen Deuterium Oxide (HOD) residual signal was suppressed by presaturation, whereas broad signals from slowly tumbling molecules were removed by including a Carr-Purcell-Meiboom-Gill filter27 to a free induction decay sequence. The filter was made up by a train of 400 echoes separated by 800 μs, for a total time of 328 ms. Each spectrum was acquired by summing up 256 transients using 32 K data points over a 7211.54-Hz spectrum (for an acquisition time of 2.27 seconds). The recycle delay was set to 8 seconds, keeping into consideration the longitudinal relaxation time of the protons under investigation. Each spectrum was processed with Top Spin 3.0 (Bruker) by using an automatic command apk0.noe, which performs in one shot the baseline and phase correction and by applying a line-broadening factor of 1 Hz. […]

Cc1cc2nc3c(=O)[nH]c(=O)nc-3n(C[C@H](O)[C@H](O)[C@H](O)CO)c2cc1C [Vitamin B2, riboflavin]
cecal propionate (1H-NMR integral area) (groups A, B, C, T0, T1, T2): A tendency to increase | cecal butyrate (1H-NMR integral area) (groups A, B, C, T0, T1, T2 (14, 28, 38/42 days)): not affected by both treatment and time | cecal uracil (1H-NMR integral area) (samples C (100 mg/kg Vit. B2) vs others): always higher than the others
